Assays:
MCF7 (breast) = test: In vitro cytotoxic activity assay (MTT), MCF7; format: cell-based; conditions: Homo sapiens; MCF7 (breast) cells, exposed for 96 hours; read-out: IC50, concentration eliciting a 50% inhibition of cell proliferation
Procedure: (§1) Compounds 1-15 were screened for their in vitro cytotoxic activity utilizing a 3-(4,5-dimethyl-thiazol-2-yl)-2,5-diphenyltetrazolium bromide (MTT) assay against selected cancer human cell lines consisting of PC3 (prostate), HCT116 (colon), A375 (melanoma), H1299 (lung), MIAPaCa-2 (pancreas), HL60 (leukemia), MCF7 (breast), MDA-MB-231 (breast) (T. Mosmann, J. Immunol. Meth., 1983, 65, 55-63). The cells were cultured at 37° C. in RMPI1640 medium supplemented with 10% fetal bovine serum, 50 IU/mL penicillin, and 50 μg/mL streptomycin in a 5% CO2 incubator. All cells were sub-cultured 3 times/week by trypsinisation. Viable cells were seeded and allowed to adhere for 12 h before a test drug was added in 96-well plates at an initial density of 1.0×10^5 cells/mL. Tumour cell lines were separately exposed to various concentrations of the tested compounds followed by incubation at a temperature of 37° C. during 96 h inside a medium of fresh RMPI 1640. Cells were subsequently incubated at 37° C. using MIT at 0.5 mg/mL during 4 h. After removal of supernatant, formazan crystals were dissolved in isopropanol and the optical density was measured at 570 nm. CX-4945 was used as a positive control.

H1299 (lung) = test: In vitro cytotoxic activity assay (MTT), H1299; format: cell-based; conditions: Homo sapiens, NCI-H1299; H1299 (lung) cells, exposed for 96 hours; read-out: IC50, concentration eliciting a 50% inhibition of cell proliferation
Procedure: as §1

[1] = biological target: T1, recombinant human CK2 (RRββ-holoenzyme) (Homo sapiens, UniProt P68400); test: CK2 Kinase Assay (33P-ATP, filter plate); format: biochemical; conditions: final ATP concentration 15 μM, 10 min at 30° C.; read-out: protein kinase CK2 activity IC50
T1 construct: purchased Millipore
Procedure: CK2 Kinase Assay was conducted using the protocol as described in Pierre F. et al; J. Med. Chem. 2011, 54, 635-654. The tested compounds in aqueous solution were added at a volume of 10 μL to a reaction mixture comprising 10 μL of assay dilution buffer (ADB; 20 mM MOPS, pH 7.2, 25 mM β-glycerol phosphate, 5 mM EGTA, 1 mM sodium orthovanadate, and 1 mM dithiothreitol), 10 μL of substrate peptide (RRRDDDSDDD, dissolved in ADB at a concentration of 1 mM), 10 μL of recombinant human CK2 (RRββ-holoenzyme, 25 ng dissolved in ADB; Millipore). Reactions were initiated by the addition of 10 μL of ATP solution (90% 75 mMMgCl2, 75 μM ATP (final ATP concentration: 15 μM) dissolved in ADB; 10% [γ-33P] ATP (stock 1 mCi/100 μL; 3000 Ci/mmol (Perkin-Elmer) and maintained for 10 min at 30° C. The reactions were quenched with 100 μL of 0.75% phosphoric acid and then transferred to and filtered through a phosphor cellulose filter plate (Millipore). After washing each well five times with 0.75% phosphoric acid, the plate was dried under vacuum for 5 min and, following the addition of 15 μL of scintillation fluid to each well, the residual radioactivity was measured using a Wallac luminescence counter. The IC50 values were derived from eight concentrations of test inhibitors.

HL60 (leukemia) = test: In vitro cytotoxic activity assay (MTT), HL60; format: cell-based; conditions: Homo sapiens, HL-60; HL60 (leukemia) cells, exposed for 96 hours; read-out: IC50, concentration eliciting a 50% inhibition of cell proliferation
Procedure: as §1

PC3 (prostate) = test: In vitro cytotoxic activity assay (MTT), PC3; format: cell-based; conditions: Homo sapiens, Prostate cell; PC3 (prostate) cells, exposed for 96 hours; read-out: IC50, concentration eliciting a 50% inhibition of cell proliferation
Procedure: as §1

A375 (melanoma) = test: In vitro cytotoxic activity assay (MTT), A375; format: cell-based; conditions: Homo sapiens, A-375; A375 (melanoma) cells, exposed for 96 hours; read-out: IC50, concentration eliciting a 50% inhibition of cell proliferation
Procedure: as §1

MIAPaCa-2 (pancreas) = test: In vitro cytotoxic activity assay (MTT), MIAPaCa-2; format: cell-based; conditions: Homo sapiens, MIA PaCa-2; MIAPaCa-2 (pancreas) cells, exposed for 96 hours; read-out: IC50, concentration eliciting a 50% inhibition of cell proliferation
Procedure: as §1

HCT116 (colon) = test: In vitro cytotoxic activity assay (MTT), HCT116; format: cell-based; conditions: Homo sapiens, HCT-116; HCT116 (colon) cells, exposed for 96 hours; read-out: IC50, concentration eliciting a 50% inhibition of cell proliferation
Procedure: as §1

MDA-MB-231 (breast) = test: In vitro cytotoxic activity assay (MTT), MDA-MB-231; format: cell-based; conditions: Homo sapiens; MDA-MB-231 (breast) cells, exposed for 96 hours; read-out: IC50, concentration eliciting a 50% inhibition of cell proliferation
Procedure: as §1

T1 sequence (P68400 whole entry): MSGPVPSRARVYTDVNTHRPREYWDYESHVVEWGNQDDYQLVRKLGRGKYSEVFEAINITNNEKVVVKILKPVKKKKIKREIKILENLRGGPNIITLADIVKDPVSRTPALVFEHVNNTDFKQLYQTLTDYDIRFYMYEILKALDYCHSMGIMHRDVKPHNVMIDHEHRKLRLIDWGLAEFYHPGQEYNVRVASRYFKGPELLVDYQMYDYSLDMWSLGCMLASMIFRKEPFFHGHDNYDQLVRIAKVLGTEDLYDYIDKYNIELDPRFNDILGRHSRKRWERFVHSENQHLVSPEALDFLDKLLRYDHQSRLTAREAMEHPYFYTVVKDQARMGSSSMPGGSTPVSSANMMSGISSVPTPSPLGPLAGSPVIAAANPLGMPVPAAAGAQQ
T1 sequence (P67870 whole entry partner): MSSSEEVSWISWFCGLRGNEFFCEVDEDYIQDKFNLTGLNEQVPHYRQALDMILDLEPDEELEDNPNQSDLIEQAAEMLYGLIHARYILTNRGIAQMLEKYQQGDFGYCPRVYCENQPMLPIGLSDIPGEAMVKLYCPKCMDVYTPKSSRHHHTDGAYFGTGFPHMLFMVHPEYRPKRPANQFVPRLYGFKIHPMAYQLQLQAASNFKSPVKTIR

Clc1cccc(-n2c3ccncc3c3nc4ccncn4c32)c1 [Compound 1, 5-(3-chlorophenyl)-5H-pyrido[3″,4″:4′,5′]pyrrolo[3′,2′:4,5]imidazo[1,2-c]pyrimidine]
IC50 (MCF7 (breast)): 4.1 µM | IC50 (H1299 (lung)): 2600 nM | IC50 [1]: 56 nM | IC50 (HL60 (leukemia)): 2800 nM | IC50 (PC3 (prostate)): 1300 nM | IC50 (A375 (melanoma)): 3.7 µM | IC50 (MIAPaCa-2 (pancreas)): 900 nM | IC50 (HCT116 (colon)): 2100 nM | IC50 (MDA-MB-231 (breast)): 2400 nM
